From US6365582B1, “S-substitute 11β-benzaldoxime-estra-4, 9-diene-carbonic acid thiolesters, method for the production thereof and pharmaceutical preparations containing these compounds” (Jenapharm GmbH & Co. KG, priority 1998, dated 2002)

Columns and labels:
glucocorticoid receptor = biological target: T1, glucocorticoid receptor (Rattus norvegicus, UniProt P06536); experiment: Receptor binding affinity, glucocorticoid receptor (competitive binding, thymus cytosol); conditions: Dexamethasone = 100%; thymus cytosol of adrenalectomized rat; tracer 3H-dexamethasone
T1 construct: receptors in the cytosol of animal target organs; from tissue; host or cells: thymus cytosol of the adrenalectomized rat
T1 sequence (P06536 1-795): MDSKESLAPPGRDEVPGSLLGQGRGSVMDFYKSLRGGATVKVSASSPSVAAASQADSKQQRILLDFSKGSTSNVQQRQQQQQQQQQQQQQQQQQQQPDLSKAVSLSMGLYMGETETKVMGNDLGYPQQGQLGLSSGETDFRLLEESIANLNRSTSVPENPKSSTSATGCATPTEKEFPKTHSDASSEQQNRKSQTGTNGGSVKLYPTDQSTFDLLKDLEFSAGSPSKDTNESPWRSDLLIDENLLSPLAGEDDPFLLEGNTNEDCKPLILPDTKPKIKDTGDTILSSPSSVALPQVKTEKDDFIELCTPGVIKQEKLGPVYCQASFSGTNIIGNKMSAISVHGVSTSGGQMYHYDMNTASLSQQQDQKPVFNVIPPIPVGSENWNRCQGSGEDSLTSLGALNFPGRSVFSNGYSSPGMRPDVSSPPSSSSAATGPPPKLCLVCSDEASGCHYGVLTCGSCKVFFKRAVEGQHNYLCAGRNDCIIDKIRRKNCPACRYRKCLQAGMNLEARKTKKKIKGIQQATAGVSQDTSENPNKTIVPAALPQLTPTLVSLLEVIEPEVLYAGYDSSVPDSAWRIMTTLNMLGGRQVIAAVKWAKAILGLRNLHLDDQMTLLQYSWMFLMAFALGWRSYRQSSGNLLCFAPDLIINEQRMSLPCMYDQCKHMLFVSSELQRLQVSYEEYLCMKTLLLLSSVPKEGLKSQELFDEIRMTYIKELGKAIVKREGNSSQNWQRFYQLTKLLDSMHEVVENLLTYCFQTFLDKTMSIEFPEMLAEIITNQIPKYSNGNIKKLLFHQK
Description: (§1) Measurement of the receptor binding affinity
(§2) The receptor binding affinity was determined by competitive binding of a specifically binding ^3H-labeled hormone (tracer) and the compound to be tested to receptors in the cytosol of animal target organs. Receptor saturation and reaction equilibrium were aimed at here. The following incubation conditions were chosen:
Glucocorticoid receptor: Thymus cytosol of the adrenalectomized rat. Thymi stored at −30° C.
Tracer: ^3H-dexamethasone, 20 nM.
Reference substance: dexamethasone.
(§3) After an incubation of receptor fraction, tracer and competitor for 18 h at 0-4° C., the bound and free steroid were separated by mixing in active carbon/dextran (1%/0.1%), centrifuging off and measuring the receptor-bound ^3H activity in the supernatant.

[1] = system: early pregnancy in the rat; experiment: Inhibition of early pregnancy in the rat (early abortive action); assay type: in vivo; conditions: s.c., day 5-7 of pregnancy
Description: Inhibition of early pregnancy in the rat Female rats weighing 180-200 g were mated in the proestrus stage. On detection of sperm in the vaginal region on the next day, this is set as day 1 (d=1) of the pregnancy. The rats are treated with test substance or vehicle using 0.2 ml of benzoyl benzoate/castor oil (1+4 v/v) subcutaneously from day 5 to day 7 (d5-d7); autopsy is carried oust painlessly on day d9. The uterus horns was [sic] dissected and examined for intact or damaged nidation sites.

guinea pig in cycle = experiment: Antiluteolysis test/ovulation inhibition test in the guinea pig in cycle; assay type: in vivo
Description: Antiluteolysis test/ovulation inhibition test in the guinea pig in cycle: This test is based on the fact that progesterone at the end of the cycle stimulates uterine prostaglandin secretion. In the guinea pig, the inhibition of this function leads to a persistence of the corpora lutea (antiluteolysis). […] This test thus allows the therapy-relevant typing of progesterone antagonists as ? pure” or ? agonistic” substances. Guinea pigs are treated with the test substance on day 10 to day 17 of the cycle. The progesterone concentrations in the serum are determined on day 10 before substance treatment and on the following days until autopsy ([…]., Beier, […]., Crundel, M. et al. in Current Concepts in Fertility Regulation and Reproduction, (eds). Puri, C. P. and Van Look, P. F. H. (1994) 303-328).

progesterone receptor = biological target: T2, progesterone receptor (Oryctolagus cuniculus, UniProt P06186); experiment: Receptor binding affinity, progesterone receptor (competitive binding, uterus cytosol); conditions: Progesterone = 100%; uterus cytosol of estradiol-primed rabbit; tracer 3H-ORG 2058
T2 construct: receptors in the cytosol of animal target organs; from tissue; host or cells: uterus cytosol of the estradiol-primed rabbit
T2 sequence (P06186 1-930): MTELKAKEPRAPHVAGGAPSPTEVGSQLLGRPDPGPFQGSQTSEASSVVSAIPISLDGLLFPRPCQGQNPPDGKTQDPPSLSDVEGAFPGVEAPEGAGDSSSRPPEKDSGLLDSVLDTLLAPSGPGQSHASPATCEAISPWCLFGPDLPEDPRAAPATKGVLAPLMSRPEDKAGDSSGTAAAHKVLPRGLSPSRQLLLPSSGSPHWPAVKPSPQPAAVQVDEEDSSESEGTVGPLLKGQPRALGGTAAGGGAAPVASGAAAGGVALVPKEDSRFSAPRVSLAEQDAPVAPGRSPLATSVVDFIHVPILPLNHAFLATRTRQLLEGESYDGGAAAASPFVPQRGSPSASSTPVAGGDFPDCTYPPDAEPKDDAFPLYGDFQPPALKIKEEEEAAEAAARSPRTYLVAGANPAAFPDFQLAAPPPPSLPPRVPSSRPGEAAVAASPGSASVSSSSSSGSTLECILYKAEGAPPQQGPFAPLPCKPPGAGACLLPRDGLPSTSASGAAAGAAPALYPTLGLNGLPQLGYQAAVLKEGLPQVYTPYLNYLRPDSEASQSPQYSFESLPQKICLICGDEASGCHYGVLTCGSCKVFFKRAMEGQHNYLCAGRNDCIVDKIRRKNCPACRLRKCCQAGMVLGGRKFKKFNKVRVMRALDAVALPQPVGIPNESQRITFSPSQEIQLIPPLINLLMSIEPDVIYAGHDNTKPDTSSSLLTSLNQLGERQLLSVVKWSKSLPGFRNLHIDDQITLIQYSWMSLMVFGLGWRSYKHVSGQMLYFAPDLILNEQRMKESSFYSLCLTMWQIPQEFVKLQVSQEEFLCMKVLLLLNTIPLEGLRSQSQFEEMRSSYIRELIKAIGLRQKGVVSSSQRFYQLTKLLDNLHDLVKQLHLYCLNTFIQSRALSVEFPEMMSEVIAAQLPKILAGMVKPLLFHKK
Description: as §1, §2
Progesterone receptor Uterus cytosol of the estradiol-primed rabbit, stored at −30° C.
Buffer for homogenization and incubation: TED buffer 20 mM tris/HCl, pH [sic]=7.4; 1 mM ethylenediamine tetracetate, 2 mM dithiothreitol) containing 250 mM sucrose.
Reference substance: progesterone.
as §3

SMILES	Relative molar binding affinity RBA (%) to the glucocorticoid receptor (glucocorticoid receptor)	Complete inhibition of pregnancy % ([1]; 0.3 mg/(animal × day))	Complete inhibition of pregnancy % ([1]; 1 mg/(animal × day))	Complete inhibition of pregnancy % ([1]; 3 mg/(animal × day))	Inhibition of luteolysis / antiluteolytic activity (in words) (guinea pig in cycle; guinea pig in cycle)	Relative molar binding affinity RBA (%) to the progesterone receptor (progesterone receptor)	Prostaglandin / PGFM levels in the blood (in words) (guinea pig in cycle; guinea pig)	Effect on the vaginal epithelium (in words) (guinea pig in cycle; guinea pig in cycle)
CC#C[C@]1(O)CC[C@H]2[C@@H]3CCC4=CC(=O)CCC4=C3[C@@H](c3ccc(N(C)C)cc3)C[C@@]21C [RU 486, mifepristone, reference compound]	685%	0%	20%	100%	slightly antiluteolytically active	–	–	–
CN(C)c1ccc([C@H]2C[C@]3(C)[C@@H](CC[C@]3(O)CCCO)[C@@H]3CCC4=CC(=O)CCC4=C32)cc1 [ZK 98299, onapristone, reference compound]	39%	–	–	–	–	22%	very low prostaglandin levels in the blood	induces proliferation and keratinization of the vaginal epithelium
